Assay [1] deals with Leishmania donovani axenic amastigote parasites. Briefly: Leishmania donovani axenic amastigote proliferation assay (Cell TiterGlo luminescence, 2 day incubation). It counts as cell-based. The following applies: Leishmania donovani, read-out: L. donovani amastigotes EC50. Background: Cellular ATP, detected with luciferase, serves as a proxy for viable cell number.
In assay [2] the test system is L. donovani HU3 strain in mouse peritoneal macrophages. Briefly: Assay for proliferation of Leishmania parasites in infected mouse peritoneal macrophages (SybrGreen staining, high-content imaging, 5 days). Type of assay: cell-based, Leishmania donovani. Particulars: Leishmania donovani, Peritoneal macrophage, L. donovani in mouse peritoneal macrophages, read-out: L. donovani Macrophage EC50.

For assay [3], the system named is Trypanosoma brucei Lister 427 strain, bloodstream form. Briefly: Assay for proliferation of kinetoplastid parasite Trypanosoma brucei (Cell Titer Glo, 48 hours). It counts as cell-based. Particulars: Trypanosoma brucei; for pEC50: T. brucei Lister 427 bloodstream form, read-out: T. brucei EC50. The text has this:
Assay for Proliferation of Kinetoplastid Parasite Trypanosoma brucei.
The proliferation is quantified by the addition of Cell Titer Glo (Promega®) a luminescent cell viability assay that measures the number of viable cells in culture based on the quantification of cellular ATP amount, which is an indicator of metabolically active cells.
The following assay illustrates the invention without in any way limiting the scope of the invention. This parasite proliferation assay measures the increase in parasite growth using an assay that measures ATP activity, Cell Titer Glo®.
Trypanosoma brucei Lister 427 strain is grown in HMI-9 Trypanosome media for T. brucei bloodstream form. 30 μl of HMI-9 media is dispensed into 384 well assay plates. 200 nl of compounds of the invention (in DMSO), including anti-trypanosome controls (Pentamidine and suramin), are then transferred into the assay plates, as well as DMSO alone to serve as a negative control for inhibition. Then 25 μl of a suspension of T. brucei culture in HMI-9 media is dispensed into the assay plates. The final concentration of parasites in culture corresponds to 1.7% of 0.5 uM ATP activity with Cell Titer Glo® in HMI-9 media. The plates are placed in a 37° C. incubator for 48 hours in an atmospheric environment containing 5% CO2. 40 μl of Cell Titer Glo® is dispensed into the plates. The plates are then read for luminescence. The percentage inhibition of 50%, EC50, is calculated for each compound.

Assay [4] has as its system Trypanosoma cruzi amastigotes (Tulahuen strain expressing Lac-Z) cultured in 3T3 fibroblast cells. Briefly: microbe, parasite or virus in culture. Type of assay: cell-based. The following applies: Trypanosoma cruzi, TULAHUEN, Fibroblast, T. cruzi amastigotes in 3T3 fibroblast cells, read-out: T cruzi EC50.
[5] abbreviates: axenic amastigotes, inhibition of proliferation.

pEC50: −log10 of the molar value. Read-outs that look alike come from different tables or passages of the source. Bounds are passed on as bounds.

Experimental findings from patent publication US20160045505A1, “COMPOUNDS AND COMPOSITIONS FOR THE TREATMENT OF PARASITIC DISEASES” (NOVARTIS AG, priority 2013, published 2016) are described below.

Usually pEC50 stands for the negative decadic logarithm of the EC50, by convention in mol/L. The term EC50 denotes the concentration at which the effect is half-maximal.

On to `Cc1nc(C)c(C(=O)Nc2ccc(F)c(-c3cn4cc(-c5ccc[nH]5)cnc4n3)c2)o1` [Compound 573], for which the pEC50 in assay [1] (L. donovani axenic amastigotes) was 6.81; in assay [2], 6.77; in assay [3] it was 6.97; in assay [4], 6.34.

Turning to `Cc1nc(C)c(C(=O)Nc2ccc(F)c(-c3cn4cc(NC(=O)C5(C)CCCCO5)cnc4n3)c2)o1` (stereo not shown) [Compound 170], the pEC50 in assay [1] (setting [5]) was 6.37; in assay [2] (inhibition of proliferation), 6.05; in assay [3] (inhibition of proliferation), 6.29; in assay [4] (inhibition of proliferation), 5.94.

On to `O=C(Nc1ccc(Cl)c(-c2cn3cc(-c4ccc(OC5CCNCC5)cc4)cnc3n2)c1)N1CCCC1` [Compound 574], for which the pEC50 was 6.13 in assay [1] (L. donovani axenic amastigotes), 6.05 in assay [2], 6.34 in assay [3] and 6.36 in assay [4].

As for `Cc1nc(C)c(C(=O)Nc2ccc(F)c(-c3cn4cc(NC(=O)[C@@H]5CCCC[C@@H]5N)cnc4n3)c2)o1` [Compound 168], the negative logarithm of the EC50 (pEC50) was 4.69 in assay [1] (setting [5]), 4.61 in assay [2] (inhibition of proliferation), 5.36 in assay [3] (inhibition of proliferation) and under 4.74 in assay [4] (inhibition of proliferation).

As for `Cc1nc(C)c(C(=O)Nc2ccc(F)c(-c3cn4cc(NC5=NCC(C)(C)O5)cnc4n3)c2)o1` [Compound 507], the pEC50 in assay [1] (L. donovani axenic amastigotes) was 5.73; in assay [2] it was 5.24; in assay [3], 5.90; in assay [4], 5.00.

`Cc1nc(C)c(C(=O)Nc2ccc(F)c(-c3cn4cc(-c5ccccc5F)cnc4n3)c2)o1` [Compound 391]: the pEC50 in assay [1] (L. donovani axenic amastigotes) was 7.25; in assay [2], 6.89; in assay [3], 7.28; in assay [4], 7.80.

On to `Cc1ncc(C(=O)Nc2ccc(F)c(-c3cn4cc(C5=CCOCC5)cnc4n3)c2)o1` [Compound 330], for which the pEC50 in assay [1] (setting [5]) is 7.55; in assay [2] (inhibition of proliferation) it was 6.94; in assay [3] (inhibition of proliferation), 7.44; in assay [4] (inhibition of proliferation) it was 6.98.

Regarding `CC(C)OC(=O)Nc1cnc2nc(-c3cc(N4C(=O)c5ccccc5C4=O)ccc3Cl)cn2c1` [Compound 530, isopropyl (2-(2-chloro-5-(1,3-dioxoisoindolin-2-yl)phenyl)imidazo[1,2-a]pyrimidin-6-yl)carbamate], the pEC50 is under 4.88 in assay [1] (L. donovani axenic amastigotes), under 4.30 in assay [2] and under 4.70 in assay [4]. In addition, the EC50 in assay [3] (read-out: T. brucei EC50 (μM)) is over 50 µM.

As to `COCCN1CCC(c2cnc3nc(-c4cc(NC(=O)c5oc(C)nc5C)ccc4F)cn3c2)CC1` [Compound 540], the pEC50 in assay [1] (L. donovani axenic amastigotes) is under 4.60; in assay [3], 6.06; in assay [4], 5.88.

For `Cc1nc(C)c(C(=O)Nc2ccc(F)c(-c3cn4cc(NC(=O)C5CNCCO5)cnc4n3)c2)o1` (stereo not shown) [Compound 179], the pEC50 in assay [1] (setting [5]) was under 4.60; in assay [2] (inhibition of proliferation) it was under 4.34; in assay [3] (inhibition of proliferation), 5.16; in assay [4] (inhibition of proliferation), under 4.70.

Take `CCC(=O)Nc1ccc(Cl)c(-c2cn3cc(NC(=O)OC(C)C)cnc3n2)c1` [Compound 247]: the pEC50 in assay [1] (setting [5]) is 6.13; in assay [2] (inhibition of proliferation), 5.49; in assay [3] (inhibition of proliferation), 6.44; in assay [4] (inhibition of proliferation) it was 6.24.

As to `Cc1nc(C)c(C(=O)Nc2ccc(F)c(-c3cn4cc(C5CCN(C(=O)CO)CC5)cnc4n3)c2)o1` [Compound 542, N-(4-fluoro-3-(6-(1-(2-hydroxyacetyl)piperidin-4-yl)imidazo[1,2-a]pyrimidin-2-yl)phenyl)-2,4-dimethyloxazole-5-carboxamide], the pEC50 in assay [1] (L. donovani axenic amastigotes) is 6.35; in assay [3], 6.33; in assay [4], 5.09.

On to `Cc1nc(C)c(C(=O)Nc2ccc(F)c(-c3cn4cc(C5CC5)cnc4n3)c2)o1` [Compound 339, N-(3-(6-cyclopropylimidazo[1,2-a]pyrimidin-2-yl)-4-fluorophenyl)-2,4-dimethyloxazole-5-carboxamide], for which the results for the negative logarithm of the EC50 (pEC50) in assay [1] (setting [5]), in assay [2] (inhibition of proliferation) and in assay [3] (inhibition of proliferation) were 7.07, 6.57 and 7.10, respectively.

As to `Cc1nc(C)c(C(=O)Nc2ccc(F)c(-c3cn4cc(CC(F)(F)F)cnc4n3)c2)o1` [Compound 575, N-(4-fluoro-3-(6-(2,2,2-trifluoroethyl)imidazo[1,2-a]pyrimidin-2-yl)phenyl)-2,4-dimethyloxazole-5-carboxamide], the pEC50 is 7.11 in assay [1] (L. donovani axenic amastigotes), 7.66 in assay [3] and 7.28 in assay [4].

With `COCCOC(=O)Nc1ccc(Cl)c(-c2cn3cc(-c4ccccc4)cnc3n2)c1` [Compound 35], the pEC50 in assay [1] (setting [5]) was 6.14; in assay [2] (inhibition of proliferation) it was 6.06; in assay [3] (inhibition of proliferation), 5.95.

Consider `O=C(Nc1ccc(Cl)c(-c2cn3cc(-c4ccsc4)cnc3n2)c1)N1CCCC1` [Compound 28], for which the pEC50 in assay [1] (setting [5]) was 7.55; in assay [2] (inhibition of proliferation), 6.89; in assay [3] (inhibition of proliferation), 8.03.

Consider `CC(=O)Nc1ccc(F)c(-c2cn3cc(NC(=O)OC(C)(C)C)cnc3n2)c1` [Compound 529, tert-butyl (2-(5-acetamido-2-fluorophenyl)imidazo[1,2-a]pyrimidin-6-yl)carbamate], for which the pEC50 in assay [1] (L. donovani axenic amastigotes) was 5.14; in assay [2], under 4.30; in assay [3], 5.49.

For `Cc1nc(C)c(C(=O)Nc2ccc(F)c(-c3cn4cc(-c5ccc(CCO)cn5)cnc4n3)c2)o1` [Compound 350], the pEC50 in assay [1] (setting [5]) was 7.80; in assay [2] (inhibition of proliferation), 6.89; in assay [3] (inhibition of proliferation), 7.28.

Consider `O=C(Nc1ccc(F)c(-c2cn3cc(NC(=O)C(F)(F)F)cnc3n2)c1)N1CCCC1` [Compound 566, N-(4-fluoro-3-(6-(2,2,2-trifluoroacetamido)imidazo[1,2-a]pyrimidin-2-yl)phenyl)pyrrolidine-1-carboxamide], for which the negative-log EC50 (pEC50) in assay [1] (L. donovani axenic amastigotes) was 5.94; in assay [2] it was 4.92; in assay [3], 6.67.

Turning to `CC(C)OC(=O)Nc1cnc2nc(-c3cc(NC(=O)N4CCC4)ccc3F)cn2c1` [Compound 226], the values for the pEC50 in assay [1] (setting [5]), in assay [2] (inhibition of proliferation) and in assay [3] (inhibition of proliferation) were 7.38, 6.42 and 7.43, respectively.

`CC(C)OC(=O)Nc1cnc2nc(-c3cc(NC(=O)N4CC(O)C4)ccc3F)cn2c1` [Compound 288]: the pEC50 is 5.11 in assay [1] (setting [5]), under 4.30 in assay [2] (inhibition of proliferation) and 4.47 in assay [3] (inhibition of proliferation).

For the compound `Cc1nc(C)c(C(=O)Nc2ccc(F)c(-c3cn4cc(-c5sc(C)nc5C)cnc4n3)c2)o1` [Compound 365], the pEC50 is 6.99 in assay [1] (setting [5]), 6.70 in assay [2] (inhibition of proliferation) and 7.23 in assay [3] (inhibition of proliferation).

As to `O=C(Nc1ccc(Cl)c(-c2cn3cc(-c4ccc(F)cc4)cnc3n2)c1)N1CCCC1` [Compound 25], the pEC50 in assay [1] (setting [5]) was 7.27; in assay [2] (inhibition of proliferation) it was 7.00; in assay [3] (inhibition of proliferation) it was 7.56.

For the compound `CN(C(=O)N1CCCC1)c1ccc(F)c(-c2cn3cc(N)cnc3n2)c1` [Compound 558], the negative logarithm of the EC50 (pEC50) in assay [1] (L. donovani axenic amastigotes) was under 4.60; in assay [2], under 4.30; in assay [3], 4.76.

For the compound `CC(C)(C)OC(=O)Nc1cnc2nc(-c3cccc(NC(=O)N4CCCC4)c3F)cn2c1` [Compound 579], the pEC50 in assay [1] (L. donovani axenic amastigotes) was under 4.60; in assay [2], under 4.30; in assay [3], 4.44.

With `COCCOC(=O)Nc1ccc(Cl)c(-c2cn3cc(-c4ccc(NC(=O)OC)cc4)cnc3n2)c1` [Compound 32, 2-methoxyethyl N-[4-chloro-3-(6-{4-[(methoxycarbonyl)amino]phenyl}imidazo[1,2-a]pyrimidin-2-yl)phenyl]carbamate], the values for the pEC50 in assay [1] (setting [5]), in assay [2] (inhibition of proliferation) and in assay [3] (inhibition of proliferation) were 6.93, 6.48 and 6.73, respectively.

In the case of `CC(C)OC(=O)Nc1cnc2nc(-c3cc(NC(=O)c4cncn4C)ccc3F)cn2c1` [Compound 96], the pEC50 is under 4.80 in assay [1] (setting [5]), 4.37 in assay [2] (inhibition of proliferation) and 5.83 in assay [3] (inhibition of proliferation).

Turning to `CC(=O)Nc1ccc(F)c(-c2cn3cc(NC(C)=O)cnc3n2)c1` [Compound 567, N-(2-(5-acetamido-2-fluorophenyl)imidazo[1,2-a]pyrimidin-6-yl)acetamide], the pEC50 in assay [1] (L. donovani axenic amastigotes) was under 4.60; in assay [2], under 4.30; in assay [3], 4.92.

For `COCCOC(=O)Nc1ccc(Cl)c(-c2cn3cc(-c4ccsc4)cnc3n2)c1` [Compound 34], the pEC50 in assay [1] (setting [5]) was 6.59; in assay [2] (inhibition of proliferation), 6.12; in assay [3] (inhibition of proliferation), 6.31.

For the compound `Cc1nc(C)c(C(=O)Nc2ccc(F)c(-c3cn4cc(C5CCN(CCO)CC5)cnc4n3)c2)o1` [Compound 541], the figures for the pEC50 in assay [1] (L. donovani axenic amastigotes), in assay [3] and in assay [4] were under 4.60, 5.00 and under 4.70, respectively.

On to `O=C(Nc1ccc(F)c(-c2cn3cc(F)cnc3n2)c1)N1CCCC1` [Compound 514], for which the pEC50 was 6.19 in assay [1] (L. donovani axenic amastigotes), 5.78 in assay [2] and 7.08 in assay [3].
